This is an account of results in patent publication US20160310581A1, “ADAM10 INHIBITION TO TREAT FRAGILE X SYNDROME” (VIB VZW, priority 2013, published 2016).

Data set [1] relates to group I metabotropic glutamate receptors (mGluR). The following applies: DHPG 100 μM, 5 min.
Procedure: Neuronal culture preparation and stimulation. Mouse primary cortical neurons (E15) were prepared as described (Ferrari et al., 2007). Neurons were treated with the mGluRI agonist DHPG (100 uM) for 5 min as described in Napoli et al., 2008.
Immunoprecipitation and RT-PCR. Mouse brains were lysed and the supernatant was used for the IP according to standardized protocol (Napoli et al., 2008). FMRP antibody or purified rabbit IgGs were incubated with the Protein A Sepharose beads and with brain extract or cells for 1 hr at 4° C. After incubation with the extracts RNA was extracted (Phenol/Chloroform) and precipitated in 2.5 v ethanol. First-strand synthesis was achieved using p(dN)6 and 100 U of Superscript III (Invitrogen) and PCR was performed with GoTaq (Promega), according to the manufacturer's instructions. We used specific oligonucleotides to amplify αCaMKII, App, Adam10, Adam9, Adam17, Cyp46, BC200, D2DR. When RTqPCR was used to quantify immunoprecipitated mRNA, the relative mRNA level in the immunoprecipitation samples was calculated as follows: 2^−[DCp(Ip)−DCp(IgG)]=2^−DDCp, where DCp equals Cp(IP or IgG)-Cp(Input).
Western Blot. Standard methodologies were used. 5-20 μg of total lysate or synaptoneurosomes were separated by SDS-PAGE electrophoresis and blotted on a PVDF membrane (Millipore). […] Further quantification was performed upon Coomassie staining of the membranes.
For a further data set, the system named is mGluR-dependent LTD. The experiment in a line: DHPG-induced mGluR-LTD, fEPSP recording in hippocampal slices. On the set-up: species or system mouse. To be noted: for LTD of fEPSPs, % of baseline: 240 min; for effect on enhanced mGluR-LTD: Fmr1 KO mice, slices 24 h after peptide treatment; for effect on the ability of DHPG to elicit LTD: WT slices/mice, compared with untreated control. The method, then:
Electrophysiology. Animals were euthanized by decapitation, and the right hippocampus was rapidly dissected out into ice-cold (4° C.) artificial cerebrospinal fluid (ACSF) and saturated with carbogen (95% O2/5% CO2). The ACSF consisted of (in mM): 124 NaCl, 4.9 KCl, 24.6 NaHCO3, 1.20 KH2PO4, 2.0 CaCl2, 2.0 MgCl2, and 10.0 glucose, pH 7.4. Transverse slices (400 μm thick) were prepared from the dorsal area of the hippocampus with a tissue chopper and were placed into a submerged-type chamber; samples were kept at 33° C. and continuously perfused with carbogen saturated ACSF at a flow-rate of 2.2 ml/min. After 90 min of incubation, one slice was arbitrarily selected, and a tungsten electrode was placed in the CA1 stratum radiatum. Field excitatory postsynaptic potentials (fEPSPs) were recorded by placing a glass electrode (filled with ACSF, 3-7 MΩ) in the stratum radiatum opposite the stimulating electrode. The time course of the field EPSP was measured as the descending slope function for all sets of experiments. After input/output curves had been established, the stimulation strength was adjusted to elicit a fEPSP-slope of 35% of the maximum and kept constant throughout the experiment. During the baseline recording, 3 single stimuli (0.1 ms pulse width; 10 s interval) were measured every 5 min. The mGluR mediated LTD was induced by a bath application of 30 μM S-DHPG [(S)-3-5-dihydroxy-phenyl glycine; Abcam Chemicals Ltd., Bristol UK] for 15 min (Tambuyzer et al., 2013). During the chemical induction, evoked responses were monitored at 1, 4, 7 and 10 min and then every 5 min until the end of the experiment. All studies were conducted with the experimenter blinded to the treatment regime.

The subject of data set [2] is ADAM10. Description: sAPPα levels in brain after intraperitoneal peptide injection (brain fractionation, western blot). The data set is classed as in vivo, mouse. The following applies: Fmr1 KO mice; single i.p. injection 3 nmol/g, 24 h; vs TAT-Ala treated Fmr1 KO mice. As to the method:
(§1) Western Blot. Standard methodologies were used. […] Membranes were incubated using specific antibodies. […] 5 (Molecular Dynamics).
Brain fractionation. Half brain was homogenized in STE buffer (Sucrose 0.32 M, 5 mMTris HCl pH 7.4, 1 mM EDTA, PSMF 0.1 mM, 10 μl ml^−1 Protease inhibitor cocktail (PIC, Sigma). The homogenized tissue was centrifuged at 800 g for 10 min to pull down nuclei. The resulting supernatant was then centrifuged at 55000 rpm 1 h. The supernatant (S1) was collected while the pellet was dissolved in 1% Triton STE Buffer and centrifuged at 55.000 rpm (TLX) for 1 hr. The supernatant is collected (S2) and the final pellet homogenized in SDS Laemmli buffer 1× (Triton-insoluble fraction, P1).
Peptide treatment. Specific (TAT-PRO) or control (TAT-ALA) peptides (10 μM) were added to the media of DIV14 WT and KO cultured neuron and the release of sAPP was monitored by WB after 24 h. P20 mice were given intraperitoneal injections of the two peptides (3 nmol/g) and fractionation performed after 24 hrs. Experiment was conducted on WT and KO littermate mice.

For another data set, the system named is Fmr1 KO mice. Description: Behavioral tests: open field (hyperactivity) and T-maze (working memory). The following applies: P24-25. The format is in vivo, mouse. The method, then: Behavioral tests. All behavioral experiments were performed with P24-25 male mice and blind to the genotype and treatment. We used a minimum of 9 animals per genotype and treatment. Mice were habituated to their new environment for 3 days and tests were conducted during the light phase of their activity cycle. Health and weight of the mice were recorded routinely during the whole period of testing.
Open-field exploration was tested in 50 cm×50 cm×30 cm (w×l×h) square arena illuminated by indirect light. Animals were dark adapted for 30 min and placed in the arena for 10 min each. Movements of the mice in the arena were video-tracked for 10 min and the images were transmitted to a PC equipped with ANY-maze™ Video Tracking System software (Stoelting Co., IL, USA).
Spatial working memory was evaluated in a delayed nonmatching alternation test using an elevated open T-shaped maze made of dark grey plastic. The maze was composed of three 50 cm×7 cm×4 cm (l×w×h) arms elevated 25 cm above the ground. Behavior was registered with a PC-interfaced camera and analyzed with ANY-maze™ Video Tracking System software (Stoelting Co., IL, USA). The mouse was subjected to two trials. During the exploration trial, one of the horizontal T-maze arms (novel arm) was blocked with a 10 cm high door and the mouse was placed into the start arm to explore freely the start and familiar arms for 5 min. […]

For data set [3] the following is noted: Marcello et al., 2007; cited from earlier work.
Data set [4] concerns dendritic spines of Fmr1 KO mice. The experiment in a line: Morphological analysis of dendritic spines in vivo (diolistic DiI labelling). To be noted: 3 nmol/g i.p., 24 h, hippocampal sections, vs TAT-Ala Fmr1 KO mice. Also on record: species or system mouse. As to the method: Morphological analysis. Wild type and Fmr1 KO mice received an intraperitoneal injection with either TAT-Pro or TAT-Ala peptides (3 nmol/g; 14-d-old mice; 8 mice/group). After 24 h, the mice were deeply anaesthetised with an intraperitoneal injection 0.54 mg/g Avertin and then perfused with ice-cold 4% PFA in 0.1M phosphate buffer (PB; 61.2 mM Na2HPO4, 23.2 mM NaH2PO4.H20, pH 7.4). Brains were removed and sectioned in 200 μm thick transverse slices containing both cortex and hippocampus using a Vibratome (Vibratome). Slices were equilibrated in PBS at 4° C. before applying the Dil-coated particles using a diolistic gene-gun system (Bio-Rad laboratories, Italy). 15 min after application, slices were fixed with 4% PFA in 0.1M PB (2 hours) and kept in PB O/N before mounting. Images of Dil-labelled neurons in the hippocampus and cortex were acquired using Zeiss Confocal LSM510 Meta system with 63× objective and a sequential acquisition setting at 1024×1024 pixels resolution. For each image three to four 0.5 μm sections were acquired and z-projection was obtained. Morphological analysis of dendritic spines was performed using freely available ImageJ 1.42q software (Wayne Rasband National Institutes of Health, USA), and spine length, head width and neck width were measured.

Data set [5] deals with ADAM10. Description: sAPP release into medium of cultured cortical neurons (western blot). The data set is classed as cell-based, mouse. To be noted: Fmr1 KO cortical neurons. As to the method:
Neuronal culture preparation and stimulation.
as §1
Peptide treatment. […] P20 mice were given intraperitoneal injections of the two peptides (3 nmol/g) and fractionation performed after 24 hrs. Experiment was conducted on WT and KO littermate mice.

A further data set deals with ADAM10/SAP97 interaction (Mus musculus, UniProt Q811D0). To be noted: Marcello et al., 2007; cited from earlier work.

Entries after “also recorded” stand apart in the source; their conditions may differ.

ADAM10/SAP97 interaction, sequence (Q811D0 whole entry): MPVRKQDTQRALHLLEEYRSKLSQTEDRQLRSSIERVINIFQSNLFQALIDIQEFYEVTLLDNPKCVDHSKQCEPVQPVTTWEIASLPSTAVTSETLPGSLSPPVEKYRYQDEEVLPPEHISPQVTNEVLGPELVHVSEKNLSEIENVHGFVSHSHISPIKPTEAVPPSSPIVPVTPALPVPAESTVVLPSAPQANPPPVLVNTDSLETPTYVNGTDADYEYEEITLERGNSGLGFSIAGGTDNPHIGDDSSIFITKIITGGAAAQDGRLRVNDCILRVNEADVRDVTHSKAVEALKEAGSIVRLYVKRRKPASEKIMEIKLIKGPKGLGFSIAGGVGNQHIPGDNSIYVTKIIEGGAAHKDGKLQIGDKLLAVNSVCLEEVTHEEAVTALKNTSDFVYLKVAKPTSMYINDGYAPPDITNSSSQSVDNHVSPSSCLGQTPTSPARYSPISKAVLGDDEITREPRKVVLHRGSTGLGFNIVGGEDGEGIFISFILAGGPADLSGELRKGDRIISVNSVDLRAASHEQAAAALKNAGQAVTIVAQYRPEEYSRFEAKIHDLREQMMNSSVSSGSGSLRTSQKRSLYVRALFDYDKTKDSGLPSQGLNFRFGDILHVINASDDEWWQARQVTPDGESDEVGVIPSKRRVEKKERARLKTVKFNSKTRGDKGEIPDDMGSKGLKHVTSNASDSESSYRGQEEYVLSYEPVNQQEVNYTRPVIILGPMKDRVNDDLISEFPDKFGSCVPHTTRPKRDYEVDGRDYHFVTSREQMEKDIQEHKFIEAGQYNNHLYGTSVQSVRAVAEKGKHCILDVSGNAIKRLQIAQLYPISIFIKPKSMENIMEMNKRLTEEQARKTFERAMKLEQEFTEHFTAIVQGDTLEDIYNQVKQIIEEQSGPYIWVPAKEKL

For `N[C@H](C(=O)O)c1cc(O)cc(O)c1` [DHPG, (S)-3-5-dihydroxy-phenyl glycine], the “expression of APP” value in data set [1] (primary cortical neurons DIV14) is on record as “induced an increase”. In data set [1] (primary cortical neurons), the “amount of App mRNA associated with FMRP” value was “reduced by threefold”. Moreover, the “LTD of fEPSPs, % of baseline” value was found to be 28±3% with mGluR-dependent LTD (Fmr1 KO mice slices, DHPG 30 μM, 15 min) and 53±9% with mGluR-dependent LTD (WT slices, DHPG bath application 30 μM, 15 min).

Consider “TAT-Pro: Cell-permeable anti-ADAM10 peptide YGRKKRRQRRRPKLPPPKPLPGTLKRRRPPQP (SEQ ID NO:1): 11 aa Tat transporter sequence linked to 21 aa ADAM10 proline rich domains (Tat-Pro ADAM10 709-729 peptide)”, for which the “sAPPα levels in brain” value in the data set with ADAM10 [2] is “significant reduction of sAPPα levels”. Further, the “behavioural deficits (open field hyperactivity, T-maze working memory)” value in the data set on Fmr1 KO mice is listed as “partially ameliorates the behavioural deficits”. The blood-brain barrier crossing entry in data set [3] was “crosses the blood-brain barrier”. Further, the spines density result in data set [4] is “decreases spines density”. The spines length result in data set [4] is “significantly increases”. Besides, the spines width result in data set [4] is “significantly increases”. For the same compound, in the data set with ADAM10 [5] (peptide 10 μM, 1 h, compared to TAT-Ala exposed neurons), the “sAPP release in the medium” value is listed as “significantly decreases sAPP release; also recorded: reduces sAPP release”. The “effect on enhanced mGluR-LTD” value in the data set on mGluR-dependent LTD (DHPG 30 μM, 15 min, listed as Tat-Pro) was “prevents mGluR-LTD”; in the data set with mGluR-dependent LTD (DHPG 30 μM, 15 min, listed as Tat-Pro ADAM10^709-729) it was “sufficient to prevent the enhanced LTD”. Also, in the data set on mGluR-dependent LTD (WT slices, 24 h after peptide treatment, DHPG 30 μM, 15 min), the “fEPSP after DHPG-induced LTD (% of baseline)” value turned out to be 65±8%. The “effect on the ability of DHPG to elicit LTD” value in the data set with mGluR-dependent LTD (listed as Tat-Pro) is listed as “does not impact LTD”; with mGluR-dependent LTD (listed as Tat-Pro ADAM10^709-729), “no detectable effect”. In addition, in the data set with ADAM10/SAP97 interaction, the ADAM10/SAP97 interaction entry is recorded as “interferes with ADAM10/SAP97 interaction”.

For “TIMP-1: tissue inhibitor of metalloproteinase-1, an inhibitor of metalloproteinases”, the “sAPP release in the medium” value in the data set with ADAM10 [5] (TIMP-1 15 nM for 4 h) is “significantly reduces sAPP release”.
